Reference: patent publication US20100331357A1, “PHARMACEUTICAL COMPOSITION” (TAKEDA PHARMACEUTICAL COMPANY LIMITED, priority 2008, published 2010)

Key:
Type in all cases: physicochemical
[1] = Solubility by eye observation with stepwise addition of solution; details: thermodynamic from solid
Experimental: (§1) Each of the solutions (0.1 mL) shown in Table 1 was added to compound A1 hydrochloride (about 2 mg), and solubility was confirmed with eye observation. When insoluble materials were recognized, the solution (0.1 mL) was further added, and solubility was confirmed by eye observation in the same manner. When insoluble materials were still recognized, the solution was thereafter added in the amounts of 0.05 mL, 0.15 mL, 0.4 mL, 0.4 mL, 0.4 mL and 0.4 mL, respectively in this order, and solubility was confirmed by eye observation. The concentration of the compound A1 hydrochloride determined from the total amount of the solution added up to the time point at which insoluble materials were not recognized, was taken as the solubility.
as §1, with “Table 2” for “Table 1”
as §1, with “Table 3” for “Table 1”
as §1, with “Table 4” for “Table 1”

[2] = Saturation solubility, shaken 18 hours at 25° C., filtered, HPLC; details: thermodynamic from solid, 40 mM Citric acid
Experimental: To each of the various solutions shown in Table 5, compound A1 hydrochloride was added in an amount exceeding the saturation concentration, and the mixture was shaken for 18 hours at 25° C.

[3] = Saturation solubility, shaken 18 hours at 5° C., filtered, HPLC; details: thermodynamic from solid, 40 mM Citric acid, NaOH, as free form
Experimental: To each of the various solutions shown in Table 6, compound A1 hydrochloride was added in an amount exceeding the saturation concentration, and the mixture was shaken for 18 hours at 5° C.

For CCS(=O)(=O)c1cccc(-c2cc(C(=O)NC3CCN(C)CC3)c(C)c3[nH]c4ncc(C)cc4c23)c1.Cl [compound A1 hydrochloride, 5-(3-(ethylsulfonyl)phenyl)-3,8-dimethyl-N-(1-methylpiperidin-4-yl)-9H-pyrido[2,3-b]indole-7-carboxamide hydrochloride], the solubility ([1]; 5 w/v % D-mannitol in water for injection, saline or isotonic) was roughly 1100 µg/mL, the solubility ([1]; 5 w/v % D-sorbitol in water for injection, saline or isotonic) was roughly 1300 µg/mL and the solubility ([1]; 5 w/v % glucose in water for injection, saline or isotonic) was roughly 1300 µg/mL. For the same compound, the solubility ([1]; 10 w/v % Dextran 40 in water for injection, aqueous with cosolvent or surfactant or cyclodextrin) was less than 1300 µg/mL, the solubility ([1]; 10 w/v % Polysorbate 20 in water for injection, aqueous with cosolvent or surfactant or cyclodextrin) was roughly 1800 µg/mL and the solubility ([1]; 10 w/v % Polysorbate 80 in water for injection, aqueous with cosolvent or surfactant or cyclodextrin) was roughly 2200 µg/mL. For the same compound, the solubility ([1]; 10 w/v % maltose in water for injection, saline or isotonic) was roughly 1400 µg/mL, the solubility ([1]; 10 w/v % sucrose in water for injection, saline or isotonic) was roughly 1200 µg/mL and the solubility ([1]; 30 w/v % maltosyl-β-cyclodextrin in water for injection, aqueous with cosolvent or surfactant or cyclodextrin) was roughly 10800 µg/mL. The solubility ([1]; aqueous with cosolvent or surfactant or cyclodextrin, 30 w/v % 2-Hydroxypropyl-β-cyclodextrin in water for injection) was roughly 10400 µg/mL, the solubility ([1]; aqueous with cosolvent or surfactant or cyclodextrin, 30 w/v % Sulfobutyl ether-β-cyclodextrin sodium salt (Captisol, clinical grade) in water for injection) was roughly 9200 µg/mL and the solubility ([1]; citric acid buffer solution, pH 2, aqueous buffer, 100 mM Citric acid buffer solution pH 2) was roughly 2100 µg/mL. It also gave a solubility ([1]; citric acid buffer solution, pH 3, aqueous buffer, 100 mM Citric acid buffer solution pH 3) of roughly 1000 µg/mL, a solubility ([1]; citric acid buffer solution, pH 4, aqueous buffer, 100 mM Citric acid buffer solution pH 4) of less than 1300 µg/mL and a solubility ([1]; citric acid buffer solution, pH 5, aqueous buffer, 100 mM Citric acid buffer solution pH 5) of less than 1300 µg/mL. The solubility ([1]; citric acid buffer solution, pH 7, aqueous buffer, 100 mM Citric acid buffer solution pH 7) was less than 1200 µg/mL, the solubility ([1]; citric acid buffer solution, pH 9, aqueous buffer, 100 mM Citric acid buffer solution pH 9) was less than 1200 µg/mL and the solubility ([1]; citric acid buffer solutions, aqueous buffer, citric acid buffer solutions of Table 1) was less than 8000 µg/mL. For the same compound, the solubility ([1]; cyclodextrin derivative solutions, aqueous with cosolvent or surfactant or cyclodextrin, all cyclodextrin derivative solutions shown in Table 4) was no less than 8000 µg/mL, the solubility ([1]; ethanol, organic solvent or mixture, 100 w/v % Ethanol) was less than 1200 µg/mL and the solubility ([1]; polyethylene glycol 300, organic solvent or mixture, 100 w/v % Polyethylene glycol 300) was less than 1100 µg/mL. The solubility ([1]; polyethylene glycol 400, organic solvent or mixture, 100 w/v % Polyethylene glycol 400) was less than 1300 µg/mL, the solubility ([1]; solutions of solubilizers, aqueous with cosolvent or surfactant or cyclodextrin, solutions of solubilizers in Table 3) was less than 8000 µg/mL and the solubility ([1]; solutions of sugars, saline or isotonic, solutions of sugars in Table 2) was less than 8000 µg/mL. For the same compound, the solubility ([1]; soybean oil, oil or lipid, 100 w/v % Soybean oil) was less than 1200 µg/mL, the solubility ([1]; water for injection, water) was less than 1200 µg/mL and the solubility at 18 h ([2]; aqueous with cosolvent or surfactant or cyclodextrin, 5 w/v % Sulfobutyl ether-β-cyclodextrin sodium salt (Captisol, research grade), HCl, pH 2.5, as free form) was 29200 µg/mL. For the same compound, the solubility at 18 h ([2]; aqueous with cosolvent or surfactant or cyclodextrin, 5 w/v % Sulfobutyl ether-β-cyclodextrin sodium salt (Captisol, research grade), NaOH, pH 4, as free form) was 24500 µg/mL, the solubility at 18 h ([2]; aqueous with cosolvent or surfactant or cyclodextrin, 5 w/v % Sulfobutyl ether-β-cyclodextrin sodium salt (Captisol, research grade), NaOH, pH 5, as free form) was 22900 µg/mL and the solubility at 18 h ([2]; citric acid solution in water for injection, aqueous buffer, water for injection, HCl, pH 2.5, as compound A1 (free form)) was 8000 µg/mL. It also gave a solubility at 18 h ([2]; citric acid solution in water for injection, aqueous buffer, water for injection, NaOH, pH 4, as free form) of 300 µg/mL, a solubility at 18 h ([2]; citric acid solution in water for injection, aqueous buffer, water for injection, NaOH, pH 5, as free form) of 100 µg/mL and a solubility at 18 h ([3]; citric acid solution in water for injection, pH 4, aqueous buffer, water for injection) of 100 µg/mL. It also gave a solubility at 18 h ([3]; pH 4, aqueous with cosolvent or surfactant or cyclodextrin, 2.5 w/v % Sulfobutyl ether-β-cyclodextrin sodium salt) of 13000 µg/mL, a solubility at 18 h ([3]; pH 4, aqueous with cosolvent or surfactant or cyclodextrin, 5 w/v % Sulfobutyl ether-β-cyclodextrin sodium salt) of 20900 µg/mL and a solubility at 18 h ([3]; pH 4, aqueous with cosolvent or surfactant or cyclodextrin, 7.5 w/v % Sulfobutyl ether-β-cyclodextrin sodium salt) of 27600 µg/mL. For the same compound, the solubility at 18 h ([3]; pH 4, aqueous with cosolvent or surfactant or cyclodextrin, 10 w/v % Sulfobutyl ether-β-cyclodextrin sodium salt) was 32800 µg/mL, the solubility at 18 h ([3]; pH 4, aqueous with cosolvent or surfactant or cyclodextrin, 12 w/v % Sulfobutyl ether-β-cyclodextrin sodium salt) was 35400 µg/mL and the solubility at 18 h ([3]; pH 4, aqueous with cosolvent or surfactant or cyclodextrin, 20 w/v % Sulfobutyl ether-β-cyclodextrin sodium salt) was 43600 µg/mL. It also gave a solubility at 18 h ([3]; pH 4, aqueous with cosolvent or surfactant or cyclodextrin, 30 w/v % Sulfobutyl ether-β-cyclodextrin sodium salt) of 49900 µg/mL.
